Key:
bedstraw = test: Test B pre/postemergence bedstraw; type: in vivo, Galium aparine
Procedure, shortened: (§1)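 Test chemicals in a non-phytotoxic solvent mixture with surfactant were sprayed preemergence onto planted seeds and postemergence onto plants 2 to 18 cm tall (1- to 4-leaf stage). After twelve to sixteen days in a greenhouse, injury was visually rated against untreated controls from 0 (no effect) to 10 (complete control).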

blackgrass = test: Test B pre/postemergence blackgrass; type: in vivo, Alopecurus myosuroides
Procedure, shortened: as §1

surinam grass = test: Test B pre/postemergence surinam grass; type: in vivo, Brachiaria decumbens
Procedure, shortened: as §1

corn = test: Test B pre/postemergence corn; type: in vivo, Zea mays
Procedure, shortened: as §1

crabgrass = test: Test B pre/postemergence crabgrass; type: in vivo, Digitaria sanguinalis
Procedure, shortened: as §1

giant foxtail = test: Test B pre/postemergence giant foxtail; type: in vivo, Setaria faberii
Procedure, shortened: as §1

morningglory = test: Test B pre/postemergence morningglory; type: in vivo, Ipomoea hederacea
Procedure, shortened: as §1

pigweed = test: Test B pre/postemergence pigweed; type: in vivo, Amaranthus retroflexus
Procedure, shortened: as §1

rape = test: Test B pre/postemergence rape; type: in vivo, Brassica napus
Procedure, shortened: as §1

sugar beet = test: Test B pre/postemergence sugar beet; type: in vivo, Beta vulgaris
Procedure, shortened: as §1

wheat = test: Test B pre/postemergence wheat; type: in vivo, Triticum aestivum
Procedure, shortened: as §1

wild oat = test: Test B pre/postemergence wild oat; type: in vivo, Avena fatua
Procedure, shortened: as §1

purple nutsedge = test: Test B pre/postemergence purple nutsedge; type: in vivo, Cyperus rotundus
Procedure, shortened: as §1

rice = test: Test B flood test rice; type: in vivo, Oryza sativa
Procedure, shortened: (§2)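 Flood test on plants grown to the 2-leaf stage; treated plants kept in greenhouse twelve to sixteen days, then visually rated against controls on a 0 (no effect) to 10 (complete control) scale.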

smallflower flatsedge = test: Test B flood test smallflower flatsedge; type: in vivo, Cyperus difformis
Procedure, shortened: as §2

bamyardgrass = test: Test B flood test barnyardgrass; type: in vivo, Echinochloa crus-galli
Procedure, shortened: as §2

[1] = Postemergence, Rate 125 g/ha, scale 0 to 10, 0 is no effect, 10 is complete control
[2] = Preemergence, Rate 62 g/ha, scale of 0 to 10 where 0 is no effect and 10 is complete control
[3] = Preemergence, Rate 250 g/ha, scale of 0 to 10 where 0 is no effect and 10 is complete control
[4] = Preemergence, Rate 500 g/ha, scale of 0 to 10 where 0 is no effect and 10 is complete control
[5] = Rate 62 g/ha, Postemergence, scale 0 to 10 (0 no effect, 10 complete control)
[6] = Rate 500 g/ha, Postemergence, scale 0 to 10, 0 no effect, 10 complete control
[7] = Rate 250 g/ha, Postemergence, scale of 0 to 10 where 0 is no effect and 10 is complete control
[8] = Rate 62 g/ha, headed Pre-emergence (flood test species), scale 0 to 10 (0 no effect, 10 complete control)
[9] = Rate 125 g/ha, Pre-emergence, flood test species, scale 0 to 10 where 0 is no effect and 10 is complete control
[10] = Rate 250 g/ha, Pre-emergence, flood-test species, scale 0 to 10, 0 is no effect, 10 is complete control
[11] = Rate 500 g/ha, Pre-emergence, flood test species, scale 0 to 10 (0 no effect, 10 complete control)

Cc1ccc(N(C(=O)n2oc(=O)n(-c3ccc4ccccc4c3)c2=O)C(C)C)cc1 [Compound 334]
0: Plant response rating, Bedstraw (bedstraw; [1]) | Bedstraw plant response rating (bedstraw; [2]) | Bedstraw plant response rating (0 to 10 scale) (bedstraw; Preemergence, Rate 125 g/ha) | Bedstraw plant response rating (bedstraw; [3]) | Bedstraw plant response rating (bedstraw; [4]) | Bedstraw plant response rating (bedstraw; [5]) | Plant response rating, Bedstraw (bedstraw; [6]) | Plant response rating, Blackgrass (blackgrass; [1]) | Blackgrass plant response rating (blackgrass; [2]) | Blackgrass plant response rating (0 to 10 scale) (blackgrass; Preemergence, Rate 125 g/ha) | Blackgrass plant response rating (blackgrass; [3]) | Blackgrass plant response rating (blackgrass; [4]) | Blackgrass plant response rating (blackgrass; [5]) | Plant response rating, Blackgrass (blackgrass; [7]) | Plant response rating, Blackgrass (blackgrass; [6]) | Plant response rating, B. signalgrass (surinam grass; [1]) | B. signalgrass plant response rating (surinam grass; [2]) | B. signalgrass plant response rating (0 to 10 scale, 0 is no effect, 10 is complete control) (surinam grass; Preemergence, Rate 125 g/ha) | B. signalgrass plant response rating (surinam grass; [3]) | B. signalgrass plant response rating (surinam grass; [4]) | B. signalgrass plant response rating (surinam grass; [5]) | Plant response rating, B. signalgrass (surinam grass; [7]) | Plant response rating, B. signalgrass (surinam grass; [6]) | Plant response rating, Corn (corn; [1]) | Corn plant response rating (corn; [2]) | Corn plant response rating (0 to 10 scale) (corn; Preemergence, Rate 125 g/ha) | Corn plant response rating (corn; [3]) | Corn plant response rating (corn; [4]) | Corn plant response rating (corn; [5]) | Plant response rating, Corn (corn; [6]) | Plant response rating, Crabgrass (crabgrass; [1]) | Crabgrass plant response rating (crabgrass; [2]) | Crabgrass plant response rating (0 to 10 scale) (crabgrass; Preemergence, Rate 125 g/ha) | Crabgrass plant response rating (crabgrass; [3]) | Crabgrass plant response rating (crabgrass; [4]) | Crabgrass plant response rating (crabgrass; [5]) | Plant response rating, Crabgrass (crabgrass; [6]) | Plant response rating, Giant foxtail (giant foxtail; [1]) | Giant foxtail plant response rating (giant foxtail; [2]) | Giant foxtail plant response rating (0 to 10 scale) (giant foxtail; Preemergence, Rate 125 g/ha) | Giant foxtail plant response rating (giant foxtail; [3]) | Giant foxtail plant response rating (giant foxtail; [4]) | Giant foxtail plant response rating (giant foxtail; [5]) | Plant response rating, Giant foxtail (giant foxtail; [6]) | Plant response rating, Morningglory (morningglory; [1]) | Morningglory plant response rating (morningglory; [2]) | Morningglory plant response rating (0 to 10 scale) (morningglory; Preemergence, Rate 125 g/ha) | Morningglory plant response rating (morningglory; [3]) | Morningglory plant response rating (morningglory; [4]) | Morningglory plant response rating (morningglory; [5]) | Plant response rating, Morningglory (morningglory; [6]) | Plant response rating, Redroot pigweed (pigweed; [1]) | Redroot pigweed plant response rating (pigweed; [2]) | Redroot pigweed plant response rating (0 to 10 scale) (pigweed; Preemergence, Rate 125 g/ha) | Redroot pigweed plant response rating (pigweed; [3]) | Redroot pigweed plant response rating (pigweed; [4]) | Redroot pigweed plant response rating (pigweed; [5]) | Plant response rating, Redroot pigweed (pigweed; [6]) | Plant response rating, Rape (rape; [1]) | Rape plant response rating (rape; [2]) | Rape plant response rating (0 to 10 scale) (rape; Preemergence, Rate 125 g/ha) | Rape plant response rating (rape; [3]) | Rape plant response rating (rape; [4]) | Rape plant response rating (rape; [5]) | Plant response rating, Rape (rape; [6]) | Plant response rating, Sugarbeets (sugar beet; [1]) | Sugarbeets plant response rating (sugar beet; [2]) | Sugarbeets plant response rating (0 to 10 scale) (sugar beet; Preemergence, Rate 125 g/ha) | Sugarbeets plant response rating (sugar beet; [3]) | Sugarbeets plant response rating (sugar beet; [4]) | Sugarbeets plant response rating (sugar beet; [5]) | Plant response rating, Sugarbeets (sugar beet; [6]) | Plant response rating, Wheat (wheat; [1]) | Wheat plant response rating (wheat; [2]) | Wheat plant response rating (0 to 10 scale) (wheat; Preemergence, Rate 125 g/ha) | Wheat plant response rating (wheat; [3]) | Wheat plant response rating (wheat; [4]) | Wheat plant response rating (wheat; [5]) | Plant response rating, Wheat (wheat; [6]) | Plant response rating, Wild oats (wild oat; [1]) | Wild oats plant response rating (wild oat; [2]) | Wild oats plant response rating (0 to 10 scale) (wild oat; Preemergence, Rate 125 g/ha) | Wild oats plant response rating (wild oat; [3]) | Wild oats plant response rating (wild oat; [4]) | Wild oats plant response rating (wild oat; [5]) | Plant response rating, Wild oats (wild oat; [6]) | Plant response rating, Nutsedge (purple nutsedge; [1]) | Nutsedge plant response rating (purple nutsedge; [2]) | Nutsedge plant response rating (0 to 10 scale) (purple nutsedge; Preemergence, Rate 125 g/ha) | Nutsedge plant response rating (purple nutsedge; [3]) | Nutsedge plant response rating (purple nutsedge; [4]) | Nutsedge plant response rating (purple nutsedge; [5]) | Plant response rating, Nutsedge (purple nutsedge; [6]) | Rice plant response rating (rice; [8]) | Rice plant response rating (rice; [9]) | Rice plant response rating (rice; [10]) | Rice plant response rating (rice; [11]) | S. Flatsedge plant response rating (smallflower flatsedge; [8]) | S. Flatsedge plant response rating (smallflower flatsedge; [9]) | S. Flatsedge plant response rating (smallflower flatsedge; [10]) | S. Flatsedge plant response rating (smallflower flatsedge; [11]) | Barnyardgrass plant response rating (bamyardgrass; [8]) | Barnyardgrass plant response rating (bamyardgrass; [9]) | Barnyardgrass plant response rating (bamyardgrass; [10]) | Barnyardgrass plant response rating (bamyardgrass; [11])
